Tests used:
Assay in all cases: cells
SK-MEL-28 = conditions: Homo sapiens, SK-MEL-28, 48 h
K-562 = conditions: Homo sapiens, K562, 48 h
OVCAR-5 = conditions: Homo sapiens, OVCAR-5, 48 h
MCF-7 = conditions: Homo sapiens, MCF7, 48 h
[1] = system: Sixty human tumor cell lines; conditions: 48 h
RXF 393 = conditions: Homo sapiens, RXF 393, 48 h
MALME-3M = conditions: Homo sapiens, 48 h
RPMI-8226 = conditions: Homo sapiens, RPMI-8226, 48 h
HCT-116 = conditions: Homo sapiens, HCT-116, 48 h
MDA-N = conditions: Homo sapiens, 48 h
A549 = conditions: Homo sapiens, A549, 48 h
UO-31 = conditions: Homo sapiens, UO-31, 48 h
DU-145 = conditions: Homo sapiens, DU-145, 48 h
TK-10 = conditions: Homo sapiens, TK-10, 48 h
OVCAR-8 = conditions: Homo sapiens, OVCAR-8, 48 h
T-47D = conditions: Homo sapiens, T47D, 48 h
SK-OV-3 = conditions: Homo sapiens, SK-OV-3, 48 h
BT-549 = conditions: Homo sapiens, BT-549, 48 h
HCT-15 = conditions: Homo sapiens, HCT-15, 48 h
HCC-2998 = conditions: Homo sapiens, HCC 2998, 48 h
SK-MEL-5 = conditions: Homo sapiens, SK-MEL-5, 48 h
M14 = conditions: Homo sapiens, M14, 48 h
KM12 = conditions: Homo sapiens, KM12, 48 h
HOP-62 = conditions: Homo sapiens, HOP-62, 48 h
SF-268 = conditions: Homo sapiens, SF-268, 48 h
CCRF-CEM = conditions: Homo sapiens, 48 h
OVCAR-4 = conditions: Homo sapiens, OVCAR-4, 48 h
NCI-H460 = conditions: Homo sapiens, NCI-H460, 48 h
[2] = read-out: Median Growth Inhibitory Concentration (GI50)
[3] = read-out: Median Lethal Concentration (LC50)

OC(CCc1ccc(F)cc1F)CCc1ccc(F)cc1F [EF19, 1,5-Bis(2,4-difluorophenyl)-pentan-3-ol]
GI50 (SK-MEL-28; [2]): 17.1 µM | CC50 (SK-MEL-28; [3]): 55.6 µM | GI50 (K-562; [2]): 19 µM | CC50 (K-562; [3]): 90.1 µM | GI50 (OVCAR-5; [2]): 18.5 µM | CC50 (OVCAR-5; [3]): 61.1 µM | GI50 (MCF-7; [2]): 17.7 µM | CC50 (MCF-7; [3]): 57.1 µM | GI50 ([1]; read-out: Median Growth Inhibitory Concentration (GI50), Mean): 17.8 µM | CC50 ([1]; read-out: Median Lethal Concentration (LC50), Mean): 64.6 µM | GI50 (RXF 393; [2]): 18.8 µM | CC50 (RXF 393; [3]): 58.4 µM | GI50 (MALME-3M; [2]): 18 µM | CC50 (MALME-3M; [3]): 59.6 µM | GI50 (RPMI-8226; [2]): 21.7 µM | CC50 (RPMI-8226; [3]): > 100 µM | GI50 (HCT-116; [2]): 17.8 µM | CC50 (HCT-116; [3]): 56.3 µM | GI50 (MDA-N; [2]): 16.9 µM | CC50 (MDA-N; [3]): 55.2 µM | GI50 (A549; [2]): 18 µM | CC50 (A549; [3]): 65.8 µM | GI50 (UO-31; [2]): 18.2 µM | CC50 (UO-31; [3]): 56.6 µM | GI50 (DU-145; [2]): 18.1 µM | CC50 (DU-145; [3]): 56.6 µM | GI50 (TK-10; [2]): 17.4 µM | CC50 (TK-10; [3]): 56.3 µM | GI50 (OVCAR-8; [2]): 18 µM | CC50 (OVCAR-8; [3]): 67.3 µM | GI50 (T-47D; [2]): 15.5 µM | CC50 (T-47D; [3]): 68.9 µM | GI50 (SK-OV-3; [2]): 18.5 µM | CC50 (SK-OV-3; [3]): 65.9 µM | GI50 (BT-549; [2]): 17.9 µM | CC50 (BT-549; [3]): 64.7 µM | GI50 (HCT-15; [2]): 24.8 µM | CC50 (HCT-15; [3]): > 100 µM | GI50 (HCC-2998; [2]): 17.7 µM | CC50 (HCC-2998; [3]): 56.1 µM | GI50 (SK-MEL-5; [2]): 17.1 µM | CC50 (SK-MEL-5; [3]): 55.5 µM | GI50 (M14; [2]): 18.3 µM | CC50 (M14; [3]): 68.7 µM | GI50 (KM12; [2]): 17.6 µM | CC50 (KM12; [3]): 56.1 µM | GI50 (HOP-62; [2]): 18 µM | CC50 (HOP-62; [3]): 58.7 µM | GI50 (SF-268; [2]): 21.5 µM | CC50 (SF-268; [3]): 85.3 µM | GI50 (CCRF-CEM; [2]): 18.2 µM | CC50 (CCRF-CEM; [3]): 72.3 µM | GI50 (OVCAR-4; [2]): 17.4 µM | CC50 (OVCAR-4; [3]): 65.1 µM | GI50 (NCI-H460; [2]): 17.9 µM | CC50 (NCI-H460; [3]): 57.5 µM

From patent publication US7371766B2, “Curcumin analogs with anti-tumor and anti-angiogenic properties” (Emory University, priority 1999, dated 2008)
